Data reported in patent US10383950B2, “Methods and compositions of carrier systems for the purpose of intracellular drug targeting” (HELMHOLTZ-ZENTRUM FÜR INFEKTIONSFORSCHUNG GMBH, priority 2014, dated 2019).

Tests used:
[1] = In vitro release of gentamicin (dialysis membrane setup); settings: 37° C., PBS pH 7.4, 10.000 MWCO cellulose membrane
[2] = cited from earlier work

## gentamicin
[1]
  time at which gentamicin became detectable in the bulk release medium: ≤ 1 min
  time to complete release / permeation of gentamicin: 1.5 h
[2]
  pKa: 8.2
